The text below walks through data of PMC8989062 (Journal of medicinal chemistry, 2022).

Entries after “also recorded” stand apart in the source; their conditions may differ.

Data set [1] concerns H3K122Ac (HAT activity of BRD4). Nature of the data set: immunofluorescence staining of H3K122Ac in hSAECs. The format is cell-based, human.
Another data set has as its target BRD4 BD1 E151A mutant (Homo sapiens, UniProt O60885, E151A). Nature of the data set: thermal shift assay. The note with it: TSA, 5 μM protein.
The subject of data set [2] is H3K122Ac (HAT activity of BRD4). Nature of the data set: immunofluorescence staining of H3K122Ac in lung sections of mice. The note with it: n = 5.
Another data set has as its system HIV. The note with it: cited from earlier work.
For data set [3] the following is noted: cited from earlier work.
Another data set concerns IL-6. Description: poly. Particulars: for activity at 10 µM: Homo sapiens, read-out: Residual activity rate, IL-6 (%).
The subject of data set [4] is poly(I:C)-induced BRD4-dependent acute airway inflammation. Nature of the data set: murine model of poly. The format is in vivo, C57BL/6J mice. The note with it: mice, 10 mg/kg po.
Data set [5] in a line: in vivo PK profiles in rats. The note with it: rat.
The subject of another data set is CIG5. Nature of the data set: poly. Particulars: Homo sapiens, read-out: Residual activity rate, CIG5 (%).
For data set [6], the system named is BET BD1 and BD2 bromodomains. The note with it: SPR; cited from earlier work. (In general: In SPR one partner is held on a chip, and binding of the other changes the refractive index at the surface.)
For data set [7] the following is noted: in vivo; cited from earlier work.

With `Cc1sc2c(c1C)C(c1ccc(Cl)cc1)=N[C@@H](CC(=O)OC(C)(C)C)c1nnc(C)n1-2` [Compound 3, reference compound], in data set [1], the “poly(I:C)-induced H3K122Ac accumulation in hSAECs” value is given as “blocked”. The “binding to E151A mutant of BRD4 BD1 compared with WT” value at BRD4 BD1 E151A mutant is given as “maintained a similar binding activity”. In addition, the “poly(I:C)-induced H3K122Ac accumulation in lung tissue of mice” value in [2] is “blocked”. Moreover, the “effect on latent HIV” value with HIV is listed as “activate latent HIV”.

The term Cmax denotes the peak of the concentration-time curve. `Cc1cc(/N=N/c2ccc(S(=O)(=O)NC3CCCC3)cc2)c(N)cc1O` [Compound 7]: the oral bioavailability in data set [3] is 0.5%. In data set [3] (oral dose of 20 mg/kg), the “AUC0–t” value is on record as 104 ng·h/mL and the Cmax is on record as 36 ng/mL.

Regarding `O=C(Nc1ccc(C(F)(F)F)cc1)Nc1ccc(S(=O)(=O)N2CCC[C@H]2C(=O)Nc2ccccc2)cc1` [Compound 45, (S)-N-Phenyl-1-((4-(3-(4-(trifluoromethyl)phenyl)ureido)phenyl)-sulfonyl)pyrrolidine-2-carboxamide], in the data set on HIV, the “effect on HIV” value is recorded as “epigenetically suppress HIV”.

For the compound `O=C(Nc1ccc(C(F)(F)F)cc1)Nc1ccc(S(=O)(=O)N2CCC[C@H]2CO)cc1` [Compound 50, (S)-1-(4-((2-(Hydroxymethyl)pyrrolidin-1-yl)sulfonyl)phenyl)-3-(4 (trifluoromethyl)phenyl)urea], the activity at 10 µM in the data set on IL-6 was 1.71 ± 0.13%.

Regarding `O=C(Nc1ccc(C(F)(F)F)cc1)Nc1ccc(S(=O)(=O)N2CCC[C@H]2CN2CCOCC2)cc1` [Compound 52, (S)-1-(4-((2-(Morpholinomethyl)pyrrolidin-1-yl)sulfonyl)phenyl)-3-(4-(trifluoromethyl)phenyl)urea], in [4], the “poly(I:C)-induced BRD4-dependent acute airway inflammation, overall” value is reported as “more efficacious”; the “poly(I:C)-induced neutrophilic inflammation around small- and medium-sized airways (histology)” value was “completely inhibited”. Also, in data set [4] (n = 5, 10 mg/kg), the “inflammatory cytokines (IL-6, KC, MCP-1, RANTES) in BALF” value was “significantly attenuated; also recorded: blocked”; the “inflammatory gene expression (IL-6, KC, ISG54, CIG5) in lung tissues” value was “significantly attenuated; also recorded: blocked”; the “total cells and neutrophils in BALF” value is “significantly attenuated; also recorded: blocked”. Also, the “poly(I:C)-induced H3K122Ac accumulation in hSAECs” value in [1] was “significantly blocked”. The “improvement of oral bioavailability compared to compound 7” value in data set [5] is “approximately 30 fold”. In addition, the activity at 10 µM in the data set on IL-6 was determined as 0.35 ± 0.03%. The “binding to E151A mutant of BRD4 BD1 compared with WT” value at BRD4 BD1 E151A mutant is “complete loss of its binding affinity”. The “poly(I:C)-induced H3K122Ac accumulation in lung tissue of mice” value in [2] is “significantly blocked”. In addition, in the data set with CIG5, the activity at 10 µM was 0.34 ± 0.025%.

As for `O=C(Nc1ccc(C(F)(F)F)cc1)Nc1ccc(S(=O)(=O)N2CCC[C@H]2CN2CCC(O)CC2)cc1` [Compound 53, (S)-1-(4-((2-((4-Hydroxypiperidin-1-yl)methyl)pyrrolidin-1-yl)-sulfonyl)phenyl)-3-(4-(trifluoromethyl)phenyl)urea], the “poly(I:C)-induced H3K122Ac accumulation in hSAECs” value in data set [1] was “significantly blocked”. Besides, in the data set with IL-6 (ratio of IC50 values), the “fold more potent than compound 1, IL-6” value was 15.9 fold and the “fold more potent than compound 3, IL-6” value is 4.8 fold. For the same compound, the “poly(I:C)-induced H3K122Ac accumulation in lung tissue of mice” value in data set [2] is listed as “significantly blocked”.

Turning to `CC(=O)Nc1c(F)cc(C(=O)N[C@H]2CC[C@H](O)CC2)cc1O[C@@H](C)c1ccccc1` [GSK046], in data set [6], the “selectivity BET BD2 over BD1” value is listed as more than 300 fold.

With `COCc1nc2cnc3cc(-c4c(C)noc4C)c(OC[C@H]4CCNC4)cc3c2n1[C@H](C)c1ccccc1` [GSK778], in [6], the “selectivity BET BD1 over BD2” value is more than 130 fold.

As to `COc1cc(OC)c2c(=O)cc(-c3cc(C)c(OC[C@H](O)CN4CCN(C)CC4)c(C)c3)oc2c1` [ZL0516, (R)-2-(4-(2-hydroxy-3-(4-methylpiperazin-1-yl)propoxy)-3,5-dimethylphenyl)-5,7-di-methoxy-4H-chromen-4-one], in data set [7], the “oral bioavailability F” value was 35%.
